This note sets out measurements from patent US10669283B2, “Compound and pharmacologically acceptable salt thereof” (MEIJI SEIKA PHARMA CO., LTD., priority 2016, dated 2020).

Where two headings read alike, the source gives them in different places.

In data set [1] the test system is PDE4. The experiment in a line: PDE4 inhibition, scintillation proximity assay (SPA). Type of data set: biochemical. The essentials: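 Compound pre-diluted 1:10 in 50 mM Tris-HCl pH 7.4, 8.3 mM MgCl2, 1.7 mM EGTA, 3 mg/mL BSA, then incubated with PDE4 and [2,8-3H]-cAMP for 120 min at room temperature. Product captured on ZnSO4-containing YSi-SPA beads for 15 min; radioactivity counted against no-enzyme blank and DMSO control.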
A general note: Scintillation proximity formats need no separation of bound from free tracer.

Data set [2] in a line: Hepatic metabolic stability (rat liver microsome method). The data set is classed as in vitro ADME. The note with it: rat liver microsomes 0.5 mg/mL, test substance 1 μM, NADPH 1 mM, 37° C., 30 minutes. The procedure: Metabolic stability in rat liver microsomes was evaluated by the following method. In 100 mM of potassium phosphate buffer solution (pH 7.4), liver microsomes (concentration at reaction: 0.5 mg/mL) and the test substance (concentration at reaction: 1 μM) were preincubated at 37° C. Five minutes later, 100 mM of potassium phosphate buffer (pH 7.4) solution of NADPH (concentration at reaction: 1 mM) was mixed thereto to start the reaction. After a predetermined time passed, acetonitrile was mixed to the reaction mixture to stop the reaction. Here, the reaction time was 0 and 30 minutes, and drug concentration measurement was performed for each time period using LC-MS. The % remaining value of the test compound was calculated from the value for 0 minutes and the value for 30 minutes, using the calculation formula below: % Remaining=(Value for 30 Minutes/Value for 0 Minutes)×100
The results of measuring the rat liver microsome metabolic Stability (% remaining for 30-minute reaction) for the test compound by the above method were evaluated in accordance with the following evaluated basis; A: a % remaining rate of 75% or more, B: 60% or more and less than 75%, C: 45% or more and less than 60%, and D: less than 45%.
(In general: Liver microsomes are a subcellular fraction often used to study metabolism.)

The mark [3] stands for this setting: scintillation proximity assay, class symbols, read-out: PDE4 Inhibitory Activity.
[4] abbreviates: scintillation proximity assay (SPA), evaluated as classes A, B, C, read-out: PDE4 Inhibitory Activity (concentration for the inhibition rate of 50%).

For the compound `OC1CCN(c2ccc(-c3nccs3)c3oc(N4CC5CC(C4)N5)nc23)CC1` [Example 397, 1-(2-(3,6-diazabicyclo[3.1.1]heptan-3-yl)-7-(thiazol-2-yl)benzo [d]oxazol-4-yl) piperidin-4-ol], in data set [1] (setting [3]), the IC50 is less than 100 nM. The “Residual ratio (% remaining for 30-minute reaction)” value in data set [2] is reported as “A (a % remaining rate of 75% or more)”.

For the compound `O=C(NCCO)c1ccc(-c2nccs2)c2oc(N3CC4CC(C3)N4)nc12` [Example 355, 2-(3,6-diazabicyclo [3.1.1]heptan-3-yl)-N-(2-hydroxyethyl)-7-(thiazol-2-yl) benzo[d] oxazole-4-carboxamide], in data set [1] (setting [3]), the IC50 was less than 100 nM. Also, in data set [2], the “Residual ratio (% remaining for 30-minute reaction)” value is recorded as “A (a % remaining rate of 75% or more)”.

For `c1csc(-c2ccc(OC3COC3)c3nc(N4CC5CC(C4)N5)oc23)n1` [Example 325, 2-(3,6-Diazabicyclo[3.1.1]heptan-3-yl)-4-(oxetan-3-yloxy)-7-(thiazol-2-yl)benzo[d]oxazole], the IC50 in data set [1] (setting [3]) is less than 100 nM. Also, the “Residual ratio (% remaining for 30-minute reaction)” value in data set [2] is listed as “A (a % remaining rate of 75% or more)”.

Regarding `CCC(O)C(F)(F)Oc1ccc(-c2nccs2)c2oc(N3CC4CC(C3)N4)nc12` (centres unmarked) [Example 395, 1-((2-(3,6-diazabicyclo[3.1.1]heptan-3-yl)-7-(thiazol-2-yl)benzo[d]oxazol-4-yl)oxy)-1,1-difluorobutan-2-ol], in data set [1] (setting [3]), the IC50 was less than 100 nM. Also, the “Residual ratio (% remaining for 30-minute reaction)” value in data set [2] is “B (60% or more and less than 75%)”.

Consider `CC(C)(O)C(F)(F)Oc1ccc(-c2ccc(F)cn2)c2oc(N3CC4CC(C3)N4)nc12` [Example 329, 1-((2-(3,6-Diazabicyclo[3.1.1]heptan-3-yl)-7-(5-fluoropyridin-2-yl)benzo[d]oxazol-4-yl)oxy)-1,1-difluoro-2-methylpropan-2-ol], for which the IC50 in data set [1] (setting [3]) is less than 100 nM. The “Residual ratio (% remaining for 30-minute reaction)” value in data set [2] is listed as “A (a % remaining rate of 75% or more)”.

As to `OCCSc1ccc(-c2nccs2)c2oc(N3CC4CC(C3)N4)nc12` [Example 348, 2-((2-(3,6-diazabicyclo[3.1.1]heptan-3-yl)-7-(thiazol-2-yl)benzo [d]oxazol-4-yl)thio) ethan-1-ol], the IC50 in data set [1] (setting [3]) was less than 100 nM. Moreover, in data set [2], the “Residual ratio (% remaining for 30-minute reaction)” value was “B (60% or more and less than 75%)”.

As to `CC(C)(O)C(F)(F)Oc1ccc(-c2ccsn2)c2oc(N3CC4CCC(C3)N4)nc12` [Example 331, 1-((2-(3,8-diazabicyclo [3.2.1]octan-3-yl)-7-(isothiazol-3-yl)benzo [d]oxazol-4-yl)oxy)-1,1-difluoro-2-methylpropan-2-ol], the IC50 in data set [1] (setting [3]) was less than 100 nM. For the same compound, the “Residual ratio (% remaining for 30-minute reaction)” value in data set [2] was “B (60% or more and less than 75%)”.

Turning to `O=C(NC1CC1)c1ccc(-c2nccs2)c2oc(N3CC4CC(C3)N4)nc12` [Example 357, 2-(3,6-diazabicyclo [3.1.1]heptan-3-yl)-N-cyclopropyl-7-(thiazol-2-yl) benzo[d]oxazole-4-carboxamide], the IC50 in data set [1] (setting [3]) is less than 100 nM. The “Residual ratio (% remaining for 30-minute reaction)” value in data set [2] is given as “A (a % remaining rate of 75% or more)”.

Turning to `FC(F)(F)Oc1c(Cl)cc(-c2nccs2)c2oc(N3CC4CC(C3)N4)nc12` [Example 3, 2-(3,6-Diazabicyclo[3.1.1]heptan-3-yl)-5-chloro-7-(thiazol-2-yl)-4-(trifluoromethoxy)benzo[d]oxazole], in data set [1] (setting [4]), the IC50 was less than 100 nM. Moreover, the “Residual ratio (% remaining for 30-minute reaction)” value in data set [2] was “B (60% or more and less than 75%)”.

On to `CC(C)(O)C(F)(F)Oc1ccc(-c2ccc(F)cn2)c2oc(N3CC4CCC(C3)N4)nc12` [Example 332, 1-((2-(3,8-diazabicyclo [3.2.1]octan-3-yl)-7-(5-fluoropyridin-2-yl)benzo[d]oxazol-4-yl)oxy)-1,1-difluoro-2-methylpropan-2-ol], for which the IC50 in data set [1] (setting [3]) was less than 100 nM. In addition, in data set [2], the “Residual ratio (% remaining for 30-minute reaction)” value is listed as “A (a % remaining rate of 75% or more)”.

On to `O=S(=O)(CCO)c1ccc(-c2nccs2)c2oc(N3CC4CC(C3)N4)nc12` [Example 350, 2-((2-(3,6-diazabicyclo[3.1.1]heptan-3-yl)-7-(thiazol-2-yl)benzo [d]oxazol-4-yl)sulfonyl)ethan-1-ol], for which the IC50 in data set [1] (setting [3]) is less than 100 nM. The “Residual ratio (% remaining for 30-minute reaction)” value in data set [2] is recorded as “A (a % remaining rate of 75% or more)”.

Turning to `COCC(F)(F)Oc1ccc(-c2nccs2)c2oc(N3CC4CC(C3)N4)nc12` [Example 392, 2-(3,6-diazabicyclo[3.1.1]heptan-3-yl)-4-(1,1-difluoro-2-methoxyethoxy)-7-(thiazol-2-yl) benzo[d]oxazole], the IC50 in data set [1] (setting [3]) was less than 100 nM. Also, the “Residual ratio (% remaining for 30-minute reaction)” value in data set [2] was “B (60% or more and less than 75%)”.

Regarding `c1csc(-c2ccc(O[C@H]3CCOC3)c3nc(N4CC5CC(C4)N5)oc23)n1` [Example 323, 2-(3,6-Diazabicyclo[3.1.1]heptan-3-yl)-4-(((S)-tetrahydrofuran-3-yl)oxy)-7-(thiazol-2-yl)benzo[d]oxazole], the IC50 in data set [1] (setting [4]) was less than 100 nM. In addition, the “Residual ratio (% remaining for 30-minute reaction)” value in data set [2] is “B (60% or more and less than 75%)”.

Consider `O=C(c1ccc(-c2nccs2)c2oc(N3CC4CC(C3)N4)nc12)N1CCOCC1` [Example 359, (2-(3,6-diazabicyclo [3.1.1]heptan-3-yl)-7-(thiazol-2-yl)benzo[d]oxazol-4-yl) (morpholino) methanone], for which, in data set [1] (setting [3]), the IC50 was in the range of 100 to 1000 nM. Further, the “Residual ratio (% remaining for 30-minute reaction)” value in data set [2] is reported as “A (a % remaining rate of 75% or more)”.

On to `CC(O)C(F)(F)Oc1ccc(-c2nccs2)c2oc(N3CC4CC(C3)N4)nc12` (single isomer, unassigned) [Example 251, 1-((2-(3,6-Diazabicyclo[3.1.1]heptan-3-yl)-7-(thiazol-2-yl)benzo[d]oxazol-4-yl)oxy)-1,1-difluoropropan-2-ol], for which the IC50 in data set [1] (setting [4]) was less than 100 nM. In addition, in data set [2], the “Residual ratio (% remaining for 30-minute reaction)” value is on record as “A (a % remaining rate of 75% or more)”.

Take `OCc1cccnc1Oc1ccc(-c2nccs2)c2oc(N3CC4CC(C3)N4)nc12` [Example 376, (2-((2-(3,6-diazabicyclo[3.1.1]heptan-3-yl)-7-(thiazol-2-yl)benzo[d]oxazol-4-yl)oxy)pyridin-3-yl)methanol]: the IC50 in data set [1] (setting [3]) is less than 100 nM. In data set [2], the “Residual ratio (% remaining for 30-minute reaction)” value is “A (a % remaining rate of 75% or more)”.

In the case of `OCC(F)(F)Oc1ccc(-c2ccc(F)cn2)c2oc(N3CC4CC(C3)N4)nc12` [Example 319, 2-((2-(3,6-Diazabicyclo[3.1.1]heptan-3-yl)-7-(5-fluoropyridin-2-yl)benzo[d]oxazol-4-yl)oxy)-2,2-difluoroethan-1-ol], in data set [1] (setting [4]), the IC50 was less than 100 nM. Besides, in data set [2], the “Residual ratio (% remaining for 30-minute reaction)” value was “A (a % remaining rate of 75% or more)”.

As to `OCC(F)(F)Oc1ccc(-c2nccs2)c2oc(N3CC4CC(C3)N4)nc12` [Example 249, 2-((2-(3,6-Diazabicyclo[3.1.1]heptan-3-yl)-7-(thiazol-2-yl)benzo[d]oxazol-4-yl)oxy)-2,2-difluoroethan-1-ol], the IC50 in data set [1] (setting [4]) is less than 100 nM. In addition, the “Residual ratio (% remaining for 30-minute reaction)” value in data set [2] was “B (60% or more and less than 75%)”.

Take `c1csc(-c2ccc(N3CCOCC3)c3nc(N4CC5CC(C4)N5)oc23)n1` [Example 369, 2-(3,6-diazabicyclo[3.1.1]heptan-3-yl)-4-morpholino-7-(thiazol-2-yl) benzo[d]oxazole]: in data set [1] (setting [3]), the IC50 is less than 100 nM. In addition, the “Residual ratio (% remaining for 30-minute reaction)” value in data set [2] was “B (60% or more and less than 75%)”.

In the case of `CC(C)(O)C(F)(F)Oc1ccc(-c2ncco2)c2oc(N3CC4CCC(C3)N4)nc12` [Example 321, 1-((2-(3,8-Diazabicyclo[3.2.1]octan-3-yl)-7-(oxazol-2-yl)benzo[d]oxazol-4-yl)oxy)-1,1-difluoro-2-methylpropan-2-ol], in data set [1] (setting [4]), the IC50 was less than 100 nM. Moreover, in data set [2], the “Residual ratio (% remaining for 30-minute reaction)” value is “A (a % remaining rate of 75% or more)”.

On to `CC(C)(O)C(F)(F)Oc1ccc(-c2nccs2)c2oc(N3CC4CCC(C3)N4)nc12` [Example 405, 1-((2-(3,8-diazabicyclo [3.2.1]octan-3-yl)-7-(thiazol-2-yl)benzo[d]oxazol-4-yl)oxy)-1,1-difluoro-2-methylpropan-2-ol], for which the IC50 in data set [1] (setting [3]) was less than 100 nM. In data set [2], the “Residual ratio (% remaining for 30-minute reaction)” value is “B (60% or more and less than 75%)”.

`COC1(COC(c2ccc(-c3nccs3)c3oc(N4CC5CC(C4)N5)nc23)C(F)(F)F)CC1` (centres unmarked) [Example 282, 2-(3,6-Diazabicyclo[3.1.1]heptan-3-yl)-7-(thiazol-2-yl)-4-(2,2,2-trifluoro-1-((1-methoxycyclopropyl)methoxy)ethyl)benzo[d]oxazole]: the IC50 in data set [1] (setting [4]) was less than 100 nM.

Regarding `FC(F)(F)c1c(Cl)cc(-n2cccn2)c2oc(N3CC4COCC(C3)N4)nc12` [Example 18, 7-(5-Chloro-7-(1H-pyrazol-1-yl)-4-(trifluoromethyl)benzo[d]oxazol-2-yl)-3-oxa-7,9-diazabicyclo[3.3.1]nonane], the IC50 in data set [1] (setting [4]) was in the range of 100 to 1000 nM.
